According to patent US20260256740A1, “PHARMACEUTICAL COMPOSITION COMPRISING CYCLOHEX-2-ENYLIDENE / 3,3-DIMETHYLINDOLINE COMPOUNDS; METHODS OF TREATING HUMAN DISEASES; AND METHODS OF INDUCING A CALCIUM SENSITIZING EFFECT IN A SUBJECT” (Curadel Surgical Innovations, Inc., priority 2022, published 2026):

Tested on: plasma membrane of living cells
Assay: NIR cellular microscopy of living cells
Format: cell-based
Source text: Without being limited by theory, PanLN and PanLN-forte are believed unlikely to directly bind myofilaments.

SMILES | crossing of the plasma membrane of living cells
CC1(C)C(/C=C/C2=C(Oc3ccc(CCC(=O)O)cc3)C(=C/C=C3/N(CCC[N+](C)(C)C)c4ccccc4C3(C)C)/CCC2)=[N+](CCC[N+](C)(C)C)c2ccccc21 [PanLN, 2-((E)-2-((E)-2-(4-(2-carboxyethyl)phenoxy)-3-((E)-2-(3,3-dimethyl-1-(3-(trimethylammonio)propyl)indolin-2-ylidene)ethylidene)cyclohex-1-enyl)vinyl)-3,3-dimethyl-1-(3-(trimethylammonio)propyl)-3H-indolium] | does not appear to cross the plasma membrane
CC1(C)C(/C=C/C2=C(c3ccc(CCC(=O)O)cc3)C(=C/C=C3/N(CCC[N+](C)(C)C)c4ccccc4C3(C)C)/CCC2)=[N+](CCC[N+](C)(C)C)c2ccccc21 [PanLN-fort, 2-((E)-2-((E)-2-(4-(2-carboxyethyl)phenyl)-3-((E)-2-(3,3-dimethyl-1-(3-(trimethylammonio)propyl)indolin-2-ylidene)ethylidene)cyclohex-1-enyl)vinyl)-3,3-dimethyl-1-(3-(trimethylammonio)propyl)-3H-indolium] | does not appear to cross the plasma membrane
